# Laboratory results taken from patent US6582680B2, “Acid resistant film forming dental composition and method of use” (priority 1999, dated 2003).
# Where a name gives a salt, the structure may show the parent alone.
# Test system: dentin postoperative hypersensitivity of human teeth
# Test: Clinical evaluation of post-operative dentin hypersensitivity in amalgam restoration patients
# Assay type: in vivo
# Method: Prior to anesthesia for pre-treatment evaluation and during the first week of treatment, the patients completed a questionnaire on pain. The patients were also evaluated post-operatively at one, three and six weeks. […] Only patients who had elected amalgam restoration procedures at UAB were employed for this study. Each tooth received a pre anesthesia evaluation for dentin postoperative hypersensitive with a cold stimulus and air jet for thermal testing. For cold-ice testing, plastic needle covers were filled with water and frozen in a refrigerator freezer for uses as the standardized cold stimulus. For air stimulation, the standardized baseline air jet from a syringe was used to direct a blast of air at the offending tooth and defective restoration. A randomized number chart was employed to select teeth for either the Copalite® varnish controls or teeth to be treated with the product of the present invention, potassium oxalate dihydrate. Following pre operative data collection and anesthesia, each tooth then received a routine intracoronal Class-I or Class-II cavity preparations. […] Following cavity preparation, rinsing and gentle air drying, the entire preparation surface was treated with the Copalite® varnish without modification or removal of the smear layer. Each control cavity was treated with three layers of copal varnish and each layer gently air dispersed with a chip syringe before the following Copalite® coat was applied. […] The patient was also evaluated for postoperative hypersensitivity at one, three and six weeks post-operatively. […] Thermal tests for ice and an air jet were administered and data recorded as for all of the previous tests. For base line data, each patient was evaluated for pain or sensitivity to cold and air prior to their treatment in this study. […] All data was analyzed by one-way Analysis of Variance (ANOVA) at the 0.05 level depending on the cell sizes in our contingency table of treatments versus responses. […] Responses from each of the patients were recorded on separate sheets and then tabulated onto the master sheet according to the identified criteria. The raw data were recorded from the McGill Visual Analog Scale (MVAS) evaluation sheets. Data were recorded from all patients experiencing none, some or severe post-operative hypersensitivity based on the patient responses at the various intervals, preoperative at 0 days, and post treatment […]. […] The date for each of the McGill VA scales were tabulated and recorded on a separate sheet with the patient's name and clinical record number-as a 10 centimeter straight line with no identifying marks along its axis.
smiles,measurement,setting,value
"O=C(O)C(=O)O [potassium oxalate dihydrate, oxalate acid potassium salt, dihydrate 99%]",patients pain free following the first procedure,"MVA survey, post-operative",88.5%
same,reduction in post-operative pain (collective MVA scale data),"McGill Visual Analog Scale, treated teeth",dramatic reduction
same,overall pain reduction for the cold discriminator measurement,"cold stimulus, compared with Copalite",greater reduction
same,"reduction in sensitivity / reported pain to the various stimuli (especially cold), in response to direct questioning","patients, post-operatively after amalgam restoration",80.3%
